Read-outs that look alike come from different tables or passages of the source.
Key:
p53-Mdm2 interaction = p53-Mdm2 interaction (Homo sapiens (Human), UniProt Q00987); experiment: Fluorescence polarization (FP) binding assay, inhibition of p53-Mdm2 interaction; details: 75 nM Mdm2 (amino acids 1-111), 10 nM FAM-labelled p53 peptide; IC50 transformed to Ki using Kenakin equation
Method: The inhibition of p53-Mdm2 interaction was measured using a fluorescence polarization (FP) binding assay. FP measures the rotational movement of molecules in a homogenous suspension. For this assay, N-terminal domain of Mdm2 protein (amino acids 1-111) is combined with a fluorescein-labeled (FAM) peptide derived from p53 trans-activation domain (Sequence: 5-FAM-TSFAEYWNLLSP). Upon excitation of the fluorescent ligand with linearly polarized light the peptide emits perpendicularly polarized light. If the peptide is bound by Mdm2, rotation will slow down and the perpendicular component will proportionally decrease. In opposition disruption of the peptide-Mdm2 complex due to binding of an inhibitor to the p53 binding site of Mdm2 results in releasing of peptide and decreasing of emitted light polarization.
Fluorescence polarization experiments were read on Biotek Cytation 5 reader with the 470 nm excitation and 520 nm emission filters for fluorescein. The fluorescence polarization was measured in black 96-well plates (Corning, CLS3991) in room temperature. Purity of Mdm2 was controlled at >95%. Reaction buffer was optimized by adding 5 mM DTT and 0.1% zwitterionic detergent CHAPS to reduce effect of nonspecific interactions.
The test was performed by combining successive dilution of compounds diluted in dimethyl sulfoxide (DMSO, 5% final concentration) with 75 nM Mdm2 in reaction buffer (PBS, 0.1% CHAPS, 5 mM DTT (dithiothreitol)). After 15 minutes of incubation in room temperature 10 nM FAM-labelled peptide was added. Final reading was performed after 90 minutes of incubation. Dose-dependent binding curves and IC50 values were calculated using GraphPad Prism5 and next transformed to Ki values using Kenakin equation (Table 2).

[1] = system: SJSA-1 osteosarcoma cell line; experiment: Cell viability MTT assay; format: cell-based; details: Homo sapiens, 72 h incubation, average of 2-5 experiments
Method: The effect of the invented p53-Mdm2 inhibitors on cell viability has been assessed using MTT assay. It is a colorimetric assay that measures conversion of tetrazolium ring of the soluble yellow dye (MTT) into insoluble purple formazan. This process is catalyzed solely in mitochondrial dehydrogenases of living cells.
Cells were seeded on 96-well plates and then treated with successive dilutions of tested compounds. After 72 h incubation, MTT was added to the final concentration 0.5 mg/ml. The cells were further incubated for the next 4 h. Then the solution was drained and the remaining formazan crystals were dissolved in 100 μl DMSO. […] All the MTT experiments were independently repeated 2-5 times. Dose-dependent binding curves and IC50 values were calculated using GraphPad Prism 5. The presented IC50 values represent the average value from all the performed experiments (Table 3).

[2] = In vitro intrinsic clearance in murine microsomes; format: in vitro ADME; details: mouse, pH 7.4; murine microsomes 0.5 mg/ml, 1 μM compound, 37° C., up to 1 hour; read-out: murine MS Clint
Method: (§1) Metabolic stability of the compounds of the invention has been assessed by measurement of the in vitro intrinsic clearance in murine and human microsomes.
(§2) 10 mM stock solutions of markers and test compounds were prepared in DMSO. These were diluted 100-fold in 91:9 MeCN:DMSO to obtain a 100 μM assay stock. 10 mM NADPH was made up in 0.1M phosphate buffer (pH7.4). Microsomes were thawed in a waterbath at 37° C., and diluted to give a final assay concentration of 0.5 mg/ml.
(§3) 100 μM assay stocks were added to give a final concentration of 1 μM to incubation tubes containing buffer and NADPH (final assay concentration is 1 mM). Incubation tubes and microsomes were pre-warmed at 37° C. for 3 minutes. The microsomes were then added to the incubation tubes which were kept at 37° C. and shaken using the orbital shaker for the duration of the assay. Samples were taken at 6 pre-determined time points up to 1 hour and transferred to the prepared quench tubes containing an appropriate solvent with internal standard.
(§4) Quenched samples are mixed thoroughly and protein precipitated at −20° C. for a minimum of 12 hours. Samples were then centrifuged at 4° C. Supernatants were transferred to a fresh 96 well plate, compatible with the auto-sampler. The plate was sealed with a pre-slit silicone mat and analyzed by LC-MS/MS.

[3] = In vitro intrinsic clearance in human microsomes; format: in vitro ADME; details: pH 7.4; human microsomes 0.5 mg/ml, 1 μM compound, 37° C., up to 1 hour; read-out: human MS Clint
Method: as §1, §2, §3, §4

SJSA-1 xenograft = experiment: In vivo efficacy in the SJSA-1 xenograft model in mice; details: for inhibition in vivo at 12.5 mg/kg: Mus musculus, po, 12.5 mg/kg p.o., q1d, SJSA-1 xenograft in Crl:CD-1-Foxn1nu mice, mean
Method: The experiment was conducted on female mice from the Crl:CD-1-Foxn1nu strain. Mice were inoculated subcutaneously in the right flank with cancer cell line SJSA-1 in the amount of 3×10^6 cells suspended in 100 μl HBSS: Matrigel matrix in a 3:1 ratio per mouse. On the 17th day after inoculation mice were divided into groups, so that in each group the mean tumor volume was similar and averaged around 200 mm^3. Experiment groups were selected, each consisting of 8 mice: Control NaCl 0.9% and compounds. Compounds 1-11 were dissolved in 56.60% PEG 400, 9.43% Cremophor RH40, 9.43% ETOH, 18.87% Labrafil M1944CS, 5.67% DMSO. For Compound 107 from WO2015/189799, group of 7 mice was used, and it was dissolved in 15% PEG400, 10% Cremophor EL, 75% H2O.
[…] During the course of experiment mice were weighed before each administration, —twice/thrice a week. Animal welfare was monitored daily. No significant difference in body weight or welfare was observed between experiment groups during and at the end of study.
Change in tumor volume was monitored twice/thrice a week starting from the first day of administration. Tumor volume was calculated based on its length and width measured with an electronic calipers: V[mm^3]=d^2×D/2
The tumor volume in the groups was measured up to 101 days after inoculation (72 days after last administration). Results of the experiment were expressed as mean values of tumor growth inhibition (TGI) ±SEM (Table 4). Tumor growth inhibition was calculated using the following formula TGI [%]=[100−[…]]
where C— mean tumor size in control group, T—mean tumor size in treated group. All calculations and graphs were performed using GraphPad Prism 5 software.

[4] = after 7 doses, read-out: TGI P.O. 12.5 mg/kg (7 doses) [%]
[5] = after 12 doses, read-out: TGI P.O. 12.5 mg/kg (12 doses) [%]

Chain of p53-Mdm2 interaction (Q00987 1-111): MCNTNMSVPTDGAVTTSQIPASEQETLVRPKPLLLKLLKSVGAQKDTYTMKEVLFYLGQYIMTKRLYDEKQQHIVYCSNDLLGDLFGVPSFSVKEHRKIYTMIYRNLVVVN

SMILES	Ki (p53-Mdm2 interaction)	IC50 [1]	microsomal CLint at 1 μM [2]	microsomal CLint at 1 μM [3]	effect of treatment on tumors (in words) (SJSA-1 xenograft; 14 doses of 12.5 mg/kg p.o., SJSA-1 xenograft)	inhibition in vivo at 12.5 mg/kg (SJSA-1 xenograft; [4])	inhibition in vivo at 12.5 mg/kg (SJSA-1 xenograft; [5])	regrowth of lesions during follow-up (SJSA-1 xenograft; after 14 doses of 12.5 mg/kg p.o., follow-up to day 101)
COc1cc(OC)c(-n2cc3c(c2C(C)C)[C@@]2(C(=O)Nc4cc(Cl)ccc42)N(c2ccc(F)c(F)c2)C3=O)cn1 [Compound 8, (3S)-6-chloro-2′-(3,4-difluorophenyl)-5′-(4,6-dimethoxypyridin-3-yl)-6′-(propan-2-yl)-1,2,3′,5′-tetrahydro-2′H-spiro[indole-3,1′-pyrrolo[3,4-c]pyrrole]-2,3′-dione]	1.9 nM	0.15 µM	12.8 µL/min/mg	< 3 µL/min/mg	complete eradication of tumors	96.4%	99.7%	none of the lesions exhibited regrowth
COc1ncc(-n2cc3c(c2C(C)C)[C@@]2(C(=O)Nc4cc(Cl)ccc42)N(c2cc(Cl)c(F)cc2F)C3=O)c(OC)n1 [Compound 10, (3S)-6-chloro-2′-(5-chloro-2,4-difluorophenyl)-5′-(2,4-dimethoxypyrimidin-5-yl)-6′-(propan-2-yl)-1,2,3′,5′-tetrahydro-2′H-spiro[indole-3,1′-pyrrolo[3,4-c]pyrrole]-2,3′-dione]	2 nM	0.4 µM	< 3 µL/min/mg	< 3.2 µL/min/mg		93.5%	98.8%	
